Test results published in PubChem BioAssay (NCI).
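All cell lines were grown in 96-well plates and treated with compound for 48 hours. GI50 = concentration required for 50% inhibition of growth. TGI is the concentration that stops growth completely.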

Assays:
Assay in all cases: DTP human tumour cell line panel, 48 h
[1] = tested on: OVCAR-8 ovarian
[2] = tested on: MOLT-4 leukemia
[3] = tested on: OVCAR-3 ovarian
[4] = tested on: SK-OV-3 ovarian
[5] = tested on: T-47D breast
[6] = tested on: PC-3 prostate
[7] = tested on: MDA-MB-435
[8] = tested on: RXF 393 renal
[9] = tested on: BT-549 breast
[10] = tested on: CCRF-CEM leukemia

COc1ccc(C2SCC(=O)N2NC(=O)C(O)c2ccccc2)cc1 (configuration not stated) gave a GI50 [1] greater than 100 µM, a TGI [1] greater than 100 µM and a GI50 [2] greater than 100 µM. It also gave a TGI [2] greater than 100 µM, a GI50 [3] greater than 100 µM and a TGI [3] greater than 100 µM. For the same compound, the GI50 [4] was greater than 100 µM, the TGI [4] was greater than 100 µM and the GI50 [5] was greater than 100 µM. For the same compound, the TGI [5] was greater than 100 µM, the GI50 [6] was greater than 100 µM and the TGI [6] was greater than 100 µM. For the same compound, the GI50 [7] was greater than 100 µM, the TGI [7] was greater than 100 µM and the GI50 [8] was greater than 100 µM. The TGI [8] was greater than 100 µM, the GI50 [9] was greater than 100 µM and the TGI [9] was greater than 100 µM. The GI50 [10] was greater than 100 µM and the TGI [10] was greater than 100 µM.

For C=C1[C@@H](O)C[C@H]2C(C)(C)C[C@H](Cl)C[C@]2(C)[C@H]1C[C@H](O)[C@H]1CC(=O)NC1=O, the GI50 [1] was 0.0155 µM, the TGI [1] was 0.163 µM and the GI50 [2] was less than 0.01 µM. For the same compound, the GI50 [3] was 0.0191 µM, the TGI [3] was 0.289 µM and the GI50 [4] was 0.0135 µM. It also gave a TGI [4] of 0.157 µM, a GI50 [5] of less than 0.0113 µM and a TGI [5] of 0.0819 µM. It also gave a GI50 [6] of 0.0174 µM, a TGI [6] of 0.264 µM and a GI50 [7] of 0.016 µM. The TGI [7] was 0.312 µM, the GI50 [8] was 0.0132 µM and the TGI [8] was 0.0722 µM. It also gave a GI50 [9] of 0.0265 µM, a TGI [9] of 0.155 µM and a GI50 [10] of less than 0.01 µM.

With Cc1ccc(S(=O)(=O)NNC(C[N+](=O)[O-])c2ccccc2)cc1 (configuration not stated) the TGI [1] was 46.1 µM, the TGI [2] was greater than 100 µM and the TGI [3] was 79.4 µM. It also gave a TGI [4] of 46.3 µM, a TGI [5] of 57.5 µM and a TGI [6] greater than 100 µM. The TGI [7] was 11.2 µM, the TGI [8] was 11.2 µM and the TGI [9] was 34.3 µM. For the same compound, the TGI [10] was greater than 100 µM.

With CSC(=NC#N)S/C=C/C(=O)c1cccc2ccccc12 the GI50 [1] was 31.9 µM, the TGI [1] was greater than 100 µM and the GI50 [2] was 8.46 µM. The TGI [2] was greater than 100 µM, the GI50 [3] was 18 µM and the TGI [3] was 48.2 µM. It also gave a GI50 [4] of 61.1 µM, a TGI [4] greater than 100 µM and a GI50 [5] of 8.59 µM. For the same compound, the TGI [5] was greater than 100 µM, the GI50 [6] was 31.3 µM and the TGI [6] was 99 µM. For the same compound, the GI50 [7] was 24.5 µM, the TGI [7] was 85.5 µM and the GI50 [8] was 32.3 µM. It also gave a TGI [8] greater than 100 µM, a GI50 [9] of 20.1 µM and a TGI [9] of 56 µM. It also gave a GI50 [10] of 27.1 µM and a TGI [10] greater than 100 µM.

With C[C@@H]1CC[C@@H]2[C@@H]1[C@H](OC(=O)c1ccc3ccccc3c1)[C@]1(C3CCCCC3)C[C@@H](OC(=O)CO)[C@@]2(C)O1 the GI50 [1] was 5.62 µM, the TGI [1] was 26.5 µM and the GI50 [2] was 5.16 µM. The TGI [2] was 21.3 µM, the GI50 [3] was 12.9 µM and the TGI [3] was 27.1 µM. The GI50 [4] was 14.4 µM, the TGI [4] was 29 µM and the GI50 [5] was 3.33 µM. For the same compound, the TGI [5] was 15.1 µM, the GI50 [6] was 4.2 µM and the TGI [6] was 19.2 µM. For the same compound, the GI50 [7] was 14.1 µM, the TGI [7] was 29.4 µM and the GI50 [8] was 0.0702 µM. For the same compound, the TGI [8] was 8.25 µM, the GI50 [9] was 0.0714 µM and the TGI [9] was 1.56 µM. It also gave a GI50 [10] of 5.36 µM and a TGI [10] of 23.6 µM.

CCOc1ccc(NC(=O)c2cc3ccccc3cc2O)cc1 gave a GI50 [1] of 47.8 µM, a TGI [1] greater than 100 µM and a GI50 [2] greater than 100 µM. It also gave a TGI [2] greater than 100 µM, a GI50 [3] greater than 100 µM and a TGI [3] greater than 100 µM. For the same compound, the GI50 [4] was 27.8 µM, the TGI [4] was greater than 100 µM and the GI50 [5] was greater than 100 µM. For the same compound, the TGI [5] was greater than 100 µM, the GI50 [6] was greater than 100 µM and the TGI [6] was greater than 100 µM. For the same compound, the GI50 [7] was greater than 100 µM, the TGI [7] was greater than 100 µM and the GI50 [8] was 19 µM. For the same compound, the TGI [8] was 40.2 µM, the GI50 [9] was 42 µM and the TGI [9] was greater than 100 µM. It also gave a GI50 [10] of 17.9 µM and a TGI [10] of 41.7 µM.

c1ccc2c(-c3cnn4cc(-c5ccc(N6CCNCC6)cc5)cnc34)ccnc2c1 was tested, and the GI50 [1] was 1.45 µM, the TGI [1] was 3.05 µM and the GI50 [2] was 0.885 µM. It also gave a TGI [2] of 2.34 µM, a GI50 [3] of 1.41 µM and a TGI [3] of 2.72 µM. For the same compound, the GI50 [4] was 1.38 µM, the TGI [4] was 2.71 µM and the GI50 [5] was 1.42 µM. For the same compound, the TGI [5] was 3.2 µM, the GI50 [6] was 0.316 µM and the TGI [6] was 1.52 µM. For the same compound, the GI50 [7] was 0.556 µM, the TGI [7] was 1.91 µM and the GI50 [8] was 1.04 µM. It also gave a TGI [8] of 2.45 µM, a GI50 [9] of 1.6 µM and a TGI [9] of 3.13 µM. It also gave a GI50 [10] of 0.196 µM and a TGI [10] of 0.447 µM.

For O=C(O)c1nnsc1-c1csnn1, the TGI [1] was greater than 100 µM, the TGI [2] was greater than 100 µM and the TGI [3] was greater than 100 µM. For the same compound, the TGI [4] was greater than 100 µM, the TGI [5] was greater than 100 µM and the TGI [6] was greater than 100 µM. It also gave a TGI [7] greater than 100 µM, a TGI [8] greater than 100 µM and a TGI [9] greater than 100 µM. The TGI [10] was greater than 100 µM.

CCCC(CCC)Oc1ccc(CCCC2=C(O)c3ccccc3C(=O)C2=O)cc1 showed a GI50 [1] of 10.2 µM, a TGI [1] of 69.7 µM and a GI50 [2] of 3.25 µM. For the same compound, the TGI [2] was 11.5 µM, the GI50 [3] was 4.33 µM and the TGI [3] was 15 µM. It also gave a GI50 [4] of 12.6 µM, a TGI [4] of 28.3 µM and a GI50 [5] of 12 µM. For the same compound, the TGI [5] was 31.6 µM, the GI50 [6] was 3 µM and the TGI [6] was 15.7 µM. For the same compound, the GI50 [7] was 4.72 µM, the TGI [7] was 17.6 µM and the GI50 [8] was 5.75 µM. It also gave a TGI [8] of 21.5 µM, a GI50 [9] of 8.74 µM and a TGI [9] of 20.9 µM. The GI50 [10] was 2.9 µM and the TGI [10] was 17.1 µM.

CC(C)C[C@H]1C(=O)N2CCC[C@H]2[C@]2(O)O[C@](NC(=O)[C@@H]3C=C4c5cccc6[nH]c(Br)c(c56)C[C@H]4N(C)C3)(C(C)C)C(=O)N12 was tested, and the TGI [1] was greater than 100 µM, the TGI [2] was greater than 100 µM and the TGI [3] was greater than 100 µM. The TGI [4] was greater than 100 µM, the TGI [5] was greater than 100 µM and the TGI [6] was greater than 100 µM. For the same compound, the TGI [7] was greater than 100 µM, the TGI [8] was greater than 100 µM and the TGI [9] was greater than 100 µM. The TGI [10] was greater than 100 µM.

For CNC12C3C4C1C1C2C3C41C(=O)N[C@H](C(=O)N(C)[C@H](C[C@@H](OC(C)=O)c1nc(C(=O)N[C@@H](Cc2ccccc2)C[C@H](C)C(=O)OC)cs1)C(C)C)C1CC1 (some centres not stated), the GI50 [1] was 0.523 µM, the TGI [1] was greater than 15 µM and the GI50 [2] was 0.467 µM. The TGI [2] was greater than 13.6 µM, the GI50 [3] was 0.0472 µM and the TGI [3] was 0.372 µM. It also gave a GI50 [4] of 0.714 µM, a TGI [4] greater than 15 µM and a GI50 [5] of 1.38 µM. The TGI [5] was greater than 15 µM, the GI50 [6] was 0.391 µM and the TGI [6] was greater than 15 µM. For the same compound, the GI50 [7] was 0.0467 µM, the TGI [7] was 0.32 µM and the GI50 [8] was 0.213 µM. The TGI [8] was 1.33 µM, the GI50 [9] was 0.123 µM and the TGI [9] was 0.745 µM. It also gave a GI50 [10] of 0.318 µM and a TGI [10] of 3.02 µM.

Work on O=C1c2ccccc2C(=O)c2sc(Nc3ccc(Cl)cc3)nc21 yielded a TGI [1] of 4.49 µM, a TGI [2] of 3.75 µM and a TGI [3] of 2.74 µM. It also gave a TGI [4] of 30.4 µM, a GI50 [5] of 1.8 µM and a TGI [5] of 7.52 µM. The GI50 [6] was 2.49 µM, the TGI [6] was 10.5 µM and the GI50 [7] was 1.29 µM. It also gave a TGI [7] of 2.69 µM, a TGI [8] of 3.65 µM and a GI50 [9] of 2.87 µM. The TGI [9] was 11.7 µM and the TGI [10] was 4 µM.

Work on Cc1[nH]c(=O)nc(N/N=C/c2ccc(Cl)cc2)c1C(=O)Nc1ccc(Cl)cc1 yielded a TGI [1] of 37.5 µM, a TGI [2] greater than 91.9 µM and a TGI [3] of 35.6 µM. For the same compound, the TGI [4] was 57.9 µM, the TGI [5] was greater than 85.4 µM and the TGI [6] was greater than 100 µM. For the same compound, the TGI [7] was greater than 100 µM, the TGI [8] was 32.9 µM and the TGI [9] was greater than 100 µM. The TGI [10] was greater than 100 µM.

Cn1ccc2c3c(=O)cc[nH]c3ccc21 gave a GI50 [1] greater than 100 µM, a TGI [1] greater than 100 µM and a GI50 [2] greater than 100 µM. It also gave a TGI [2] greater than 100 µM, a GI50 [3] greater than 100 µM and a TGI [3] greater than 100 µM. For the same compound, the GI50 [4] was 80.1 µM, the TGI [4] was greater than 100 µM and the GI50 [5] was greater than 100 µM. The TGI [5] was greater than 100 µM, the GI50 [6] was greater than 100 µM and the TGI [6] was greater than 100 µM. It also gave a GI50 [7] greater than 100 µM, a TGI [7] greater than 100 µM and a GI50 [8] greater than 100 µM. The TGI [8] was greater than 100 µM, the GI50 [9] was greater than 100 µM and the TGI [9] was greater than 100 µM. It also gave a GI50 [10] greater than 100 µM and a TGI [10] greater than 100 µM.
